The target in one series is JAK2 (Homo sapiens (Human), UniProt O60674). As to the kind of experiment: Inhibition of JAK2, luminescence kinase assay (ADP-Glo). Type of series: biochemical. Conditions: purified recombinant JAK2. Here is the method: (§1) The study of the effect of compounds on the activity of purified recombinant JAK was performed by studying the inhibitory activity of the compounds on JAK from the enzymatic level. The experimental principle is to use a luminescence kinase assay to detect the ADP content produced by the reaction of JAK with the substrate Poly (4:1 Glu, Tyr) peptide: after ADP is converted to ATP, ATP can act as a substrate for the Ultra-Glo luciferase catalytic reaction, producing an optical signal. The luminescence signal is positively correlated with the amount of ADP and kinase activity. Therefore, the inhibitory effect of the compounds on the recombinant JAK was determined by observing the luminescence signal produced by the reaction of JAK and the substrate, and was expressed by IC50.
(§2) Experimental method: 10 different concentrations of compounds were incubated with JAK1, JAK2 and JAK3, respectively, for 60 minutes at 37° C. The substrate and ATP were then added, mixed, and reacted at 37° C. for 50 minutes. 25 μl of ADP-Glo™ was added and mixed for 2 minutes. The reaction was carried out for 50 minutes at room temperature. Further, 50 μl of the detection reagent was added and mixed for 2 minutes, and incubated at room temperature for 50 minutes, and detected by a chemiluminometer.

A further series has as its system Wistar rats. As to the kind of experiment: Effect of repeated administration on hematological parameters in rats. It counts as in vivo, rat. Here is the method:
48 healthy Wistar rats were taken, half ♀ and half ♂. According to the body weight, they were randomly divided into the control group (Veh). The compound of Example 3 was administered by gavage at doses of 1.5 mg·kg^−1·d^−1 and 4.5 mg·kg^−1·d^−1. Ruxolitinib was administered by gavage at dose of 4.5 mg·kg^−1·d^−1. There were 12 rats in each group, half ♀ and half ♂. The drug was administered by gavage once a day for 4 weeks, and the hematological parameters were examined 1 day and 2 days after the last administration.

Another series addresses JAK1 (Homo sapiens (Human), UniProt P23458). As to the kind of experiment: Inhibition of JAK1, luminescence kinase assay (ADP-Glo). Type of series: biochemical. Conditions: purified recombinant JAK1. Here is the method: as §1, §2
For a further series, the target named is JAK3 (Homo sapiens (Human), UniProt P52333). As to the kind of experiment: Inhibition of JAK3, luminescence kinase assay (ADP-Glo). The settings on record: purified recombinant JAK3. Type of series: biochemical. Here is the method:
as §1, §2

[1] abbreviates: gavage 4.5 mg·kg−1·d−1 once a day for 4 weeks.

Chain of JAK2 (O60674 whole entry): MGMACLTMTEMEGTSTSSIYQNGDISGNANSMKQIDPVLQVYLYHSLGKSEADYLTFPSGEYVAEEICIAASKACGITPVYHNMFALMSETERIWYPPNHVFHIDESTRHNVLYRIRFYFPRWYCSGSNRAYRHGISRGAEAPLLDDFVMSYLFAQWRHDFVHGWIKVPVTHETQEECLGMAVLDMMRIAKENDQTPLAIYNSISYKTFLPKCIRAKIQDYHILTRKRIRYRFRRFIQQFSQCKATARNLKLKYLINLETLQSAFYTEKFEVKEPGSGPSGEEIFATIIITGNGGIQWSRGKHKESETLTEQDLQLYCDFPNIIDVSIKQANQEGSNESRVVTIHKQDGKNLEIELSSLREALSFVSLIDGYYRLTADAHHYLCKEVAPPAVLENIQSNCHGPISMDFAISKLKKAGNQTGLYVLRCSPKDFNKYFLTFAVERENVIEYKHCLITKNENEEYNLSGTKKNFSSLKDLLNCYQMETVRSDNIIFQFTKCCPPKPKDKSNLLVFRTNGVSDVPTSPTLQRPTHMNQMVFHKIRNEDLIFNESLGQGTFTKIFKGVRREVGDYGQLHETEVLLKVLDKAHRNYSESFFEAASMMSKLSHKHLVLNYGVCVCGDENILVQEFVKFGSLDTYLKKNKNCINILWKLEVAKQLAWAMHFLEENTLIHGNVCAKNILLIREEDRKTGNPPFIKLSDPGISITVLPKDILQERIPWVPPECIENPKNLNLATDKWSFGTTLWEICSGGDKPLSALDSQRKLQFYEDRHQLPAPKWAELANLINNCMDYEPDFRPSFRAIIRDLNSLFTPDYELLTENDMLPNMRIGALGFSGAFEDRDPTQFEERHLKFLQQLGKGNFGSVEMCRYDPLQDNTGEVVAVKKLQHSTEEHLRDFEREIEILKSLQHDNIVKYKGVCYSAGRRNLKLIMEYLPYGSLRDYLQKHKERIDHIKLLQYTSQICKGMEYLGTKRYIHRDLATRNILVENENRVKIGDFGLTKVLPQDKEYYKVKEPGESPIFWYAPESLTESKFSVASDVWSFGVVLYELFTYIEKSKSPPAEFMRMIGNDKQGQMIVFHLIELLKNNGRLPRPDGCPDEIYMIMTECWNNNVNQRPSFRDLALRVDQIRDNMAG
Chain of JAK3 (P52333 whole entry): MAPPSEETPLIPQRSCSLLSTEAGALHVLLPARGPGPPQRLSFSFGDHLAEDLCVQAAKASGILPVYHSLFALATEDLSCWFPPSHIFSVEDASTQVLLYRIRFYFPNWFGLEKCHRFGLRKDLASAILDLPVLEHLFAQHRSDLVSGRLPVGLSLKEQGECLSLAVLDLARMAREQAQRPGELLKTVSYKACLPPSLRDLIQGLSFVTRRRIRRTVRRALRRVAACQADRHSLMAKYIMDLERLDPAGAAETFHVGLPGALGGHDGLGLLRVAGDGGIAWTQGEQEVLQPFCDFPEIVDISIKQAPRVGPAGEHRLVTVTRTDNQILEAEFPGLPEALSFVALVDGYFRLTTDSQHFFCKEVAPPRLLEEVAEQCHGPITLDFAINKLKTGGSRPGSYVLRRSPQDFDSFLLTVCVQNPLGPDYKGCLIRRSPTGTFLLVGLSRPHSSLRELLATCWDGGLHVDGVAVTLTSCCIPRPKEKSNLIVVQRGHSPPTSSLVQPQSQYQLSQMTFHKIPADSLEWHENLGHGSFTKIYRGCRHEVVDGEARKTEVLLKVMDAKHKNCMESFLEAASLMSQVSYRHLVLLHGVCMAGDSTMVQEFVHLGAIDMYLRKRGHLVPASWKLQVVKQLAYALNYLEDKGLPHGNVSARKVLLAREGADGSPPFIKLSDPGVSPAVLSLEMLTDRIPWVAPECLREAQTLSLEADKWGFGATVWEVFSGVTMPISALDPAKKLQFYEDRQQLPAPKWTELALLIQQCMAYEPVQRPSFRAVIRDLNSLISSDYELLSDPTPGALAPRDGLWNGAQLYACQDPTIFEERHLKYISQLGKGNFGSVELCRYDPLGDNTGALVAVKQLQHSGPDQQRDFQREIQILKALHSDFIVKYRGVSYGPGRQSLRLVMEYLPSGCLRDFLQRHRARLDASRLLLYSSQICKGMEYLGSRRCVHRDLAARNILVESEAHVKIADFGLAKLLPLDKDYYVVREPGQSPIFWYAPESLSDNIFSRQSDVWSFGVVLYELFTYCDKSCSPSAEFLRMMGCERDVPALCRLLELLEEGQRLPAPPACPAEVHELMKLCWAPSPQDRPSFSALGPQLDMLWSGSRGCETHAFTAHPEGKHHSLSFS
Chain of JAK1 (P23458 whole entry): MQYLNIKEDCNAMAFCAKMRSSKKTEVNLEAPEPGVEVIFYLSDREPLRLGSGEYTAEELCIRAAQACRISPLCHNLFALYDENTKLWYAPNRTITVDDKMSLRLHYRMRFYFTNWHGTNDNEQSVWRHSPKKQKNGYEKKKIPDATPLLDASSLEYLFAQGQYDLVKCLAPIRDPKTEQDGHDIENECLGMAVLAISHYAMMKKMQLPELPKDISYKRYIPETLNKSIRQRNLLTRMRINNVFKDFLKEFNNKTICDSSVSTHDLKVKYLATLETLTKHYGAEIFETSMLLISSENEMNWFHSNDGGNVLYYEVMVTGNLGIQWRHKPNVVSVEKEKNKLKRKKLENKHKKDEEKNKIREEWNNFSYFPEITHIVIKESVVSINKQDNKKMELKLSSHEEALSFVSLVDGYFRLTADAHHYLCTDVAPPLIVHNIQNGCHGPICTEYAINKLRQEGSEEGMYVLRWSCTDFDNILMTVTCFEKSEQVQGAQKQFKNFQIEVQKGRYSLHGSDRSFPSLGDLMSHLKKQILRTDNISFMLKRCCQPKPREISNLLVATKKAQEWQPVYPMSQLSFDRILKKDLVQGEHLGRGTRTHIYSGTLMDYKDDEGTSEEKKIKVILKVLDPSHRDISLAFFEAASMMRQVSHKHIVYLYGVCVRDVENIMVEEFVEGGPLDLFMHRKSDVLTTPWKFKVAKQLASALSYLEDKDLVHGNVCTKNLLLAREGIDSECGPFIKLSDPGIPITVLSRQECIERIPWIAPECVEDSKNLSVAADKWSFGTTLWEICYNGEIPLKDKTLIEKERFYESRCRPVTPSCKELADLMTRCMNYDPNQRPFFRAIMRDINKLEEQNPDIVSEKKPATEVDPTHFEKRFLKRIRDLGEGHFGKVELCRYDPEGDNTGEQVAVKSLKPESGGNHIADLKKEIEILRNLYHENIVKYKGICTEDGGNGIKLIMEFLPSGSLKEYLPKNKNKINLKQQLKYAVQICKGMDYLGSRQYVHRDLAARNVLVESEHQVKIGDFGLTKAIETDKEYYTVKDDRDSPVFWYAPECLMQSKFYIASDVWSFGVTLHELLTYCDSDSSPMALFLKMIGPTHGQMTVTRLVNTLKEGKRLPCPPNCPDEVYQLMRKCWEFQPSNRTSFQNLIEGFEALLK

Turning to `N#CCC1(n2cc(-c3ncnc4[nH]ccc34)cn2)CCS(=O)(=O)CC1` [Example 3, 2-(4-(4-(7H-pyrrolo[2,3-d]pyrimidin-4-yl)-1H-pyrazol-1-yl)-1,1-dioxotetrahydro-2H-thiopyran-4-yl)acetonitrile], at JAK2, the IC50 was in the range of 20 to 50 nM. Besides, the “hematological parameter WBC compared with the control group (Veh)” value in the series with Wistar rats (gavage 1.5 mg·kg−1·d−1 once a day for 4 weeks) and with Wistar rats (setting [1]) was “no significant decrease” each time.

Take `CC[C@](C)(C#N)Nc1ccnc(-c2ccnc3[nH]ccc23)n1` [Example 62]: the IC50 on JAK1, at JAK2 and at JAK3 was greater than 50 nM each time.

On to `N#CC[C@H](C1CCCC1)n1cc(-c2ncnc3[nH]ccc23)cn1` [Ruxolitinib, reference compound], for which the “hematological parameter WBC compared with the control group (Veh)” value in the series with Wistar rats (setting [1]) was “significant decrease”.

The values above are taken from patent US11414413B2, “Heterocyclic compound as JAK inhibitor, and salts and therapeutic use thereof” (Suzhou Longbiotech Pharmaceuticals Co., Ltd., priority 2016, dated 2022).
